# Measured values as given in ChEMBL document CHEMBL3132769, “Fragment growing to retain or alter the selectivity of anchored kinase hinge-binding fragments” (Medchemcomm, 2014).
# Experiments:
# [1] = molecular target: Calcium/calmodulin-dependent protein kinase type II subunit gamma (Homo sapiens) (UniProt Q13555); assay: Inhibition of human CAMK2 gamma catalytic domain expressed in baculovirus assessed as substrate phosphorylation using fluorescence-labelled peptides as substrate at 0.06 uM after 90 mins by microfluidic peptide phosphorylation assay
# [2] = molecular target: MAP kinase p38 (Homo sapiens) (UniProt O15264+Q15759+Q16539+P53778); assay: Inhibition of human full length p38 beta2 expressed in Escherichia coli cell assessed as substrate phosphorylation using fluorescence-labelled peptides as substrate at 0.06 uM after 90 mins by microfluidic peptide phosphorylation assay
# [3] = molecular target: Platelet-derived growth factor receptor alpha (Homo sapiens) (UniProt P16234); assay: Inhibition of human PDGFR alpha catalytic domain expressed in baculovirus assessed as substrate phosphorylation using fluorescence-labelled peptides as substrate at 0.06 uM after 90 mins by microfluidic peptide phosphorylation assay
# [4] = molecular target: Ribosomal protein S6 kinase alpha-5 (Homo sapiens) (UniProt O75582); assay: Inhibition of human full length MSK1 expressed in baculovirus assessed as substrate phosphorylation using fluorescence-labelled peptides as substrate at 0.06 uM after 90 mins by microfluidic peptide phosphorylation assay
# [5] = system: Tyrosine-protein kinase ABL1 (Homo sapiens), P00519 [T315I]; assay: Inhibition of human truncated ABL T315I mutant expressed in baculovirus assessed as substrate phosphorylation using fluorescence-labelled peptides as substrate at 420 uM after 90 mins by microfluidic peptide phosphorylation assay
# [6] = molecular target: T1, Serine/threonine-protein kinase Chk1 (Homo sapiens) (UniProt O14757); assay: Inhibition of human full length CHK1 expressed in baculovirus assessed as substrate phosphorylation using fluorescence-labelled peptides as substrate at 420 uM after 90 mins by microfluidic peptide phosphorylation assay
# T1 sequence (whole entry): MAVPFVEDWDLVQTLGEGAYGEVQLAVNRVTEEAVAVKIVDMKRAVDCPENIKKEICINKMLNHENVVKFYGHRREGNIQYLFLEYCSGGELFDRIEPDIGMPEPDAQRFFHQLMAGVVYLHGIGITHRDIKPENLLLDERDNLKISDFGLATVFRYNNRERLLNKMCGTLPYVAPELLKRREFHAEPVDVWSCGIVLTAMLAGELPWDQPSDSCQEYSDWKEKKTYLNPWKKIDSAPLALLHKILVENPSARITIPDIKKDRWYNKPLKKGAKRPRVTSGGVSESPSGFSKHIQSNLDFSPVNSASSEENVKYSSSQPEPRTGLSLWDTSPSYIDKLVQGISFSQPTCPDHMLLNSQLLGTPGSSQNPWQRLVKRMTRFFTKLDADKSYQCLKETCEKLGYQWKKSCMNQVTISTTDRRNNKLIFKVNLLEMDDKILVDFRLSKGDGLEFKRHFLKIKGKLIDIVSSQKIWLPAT
# [7] = molecular target: Ribosomal protein S6 kinase alpha-4 (Homo sapiens) (UniProt O75676); assay: Inhibition of human full length MSK2 expressed in baculovirus assessed as substrate phosphorylation using fluorescence-labelled peptides as substrate at 420 uM after 90 mins by microfluidic peptide phosphorylation assay
# [8] = molecular target: Calcium/calmodulin-dependent protein kinase type II subunit gamma (Homo sapiens) (UniProt Q13555); assay: Inhibition of human CAMK2 gamma catalytic domain expressed in baculovirus assessed as substrate phosphorylation using fluorescence-labelled peptides as substrate at 420 uM after 90 mins by microfluidic peptide phosphorylation assay
# [9] = molecular target: Protein kinase C theta type (Homo sapiens) (UniProt Q04759); assay: Inhibition of human truncated PKC theta expressed in baculovirus assessed as substrate phosphorylation using fluorescence-labelled peptides as substrate at 0.2 uM after 90 mins by microfluidic peptide phosphorylation assay
# [10] = molecular target: Fibroblast growth factor receptor 2 (Homo sapiens) (UniProt P21802); settings: 0.1 uM
# Description: Inhibition of human FGFR2 catalytic domain expressed in baculovirus assessed as substrate phosphorylation using fluorescence-labelled peptides as substrate at 0.1 uM after 90 mins by microfluidic peptide phosphorylation assay
# [11] = molecular target: T2, Interleukin-1 receptor-associated kinase 4 (Homo sapiens) (UniProt Q9NWZ3); assay: Inhibition of human IRAK4 catalytic domain expressed in baculovirus assessed as substrate phosphorylation using fluorescence-labelled peptides as substrate at 95 uM after 90 mins by microfluidic peptide phosphorylation assay
# T2 sequence (whole entry): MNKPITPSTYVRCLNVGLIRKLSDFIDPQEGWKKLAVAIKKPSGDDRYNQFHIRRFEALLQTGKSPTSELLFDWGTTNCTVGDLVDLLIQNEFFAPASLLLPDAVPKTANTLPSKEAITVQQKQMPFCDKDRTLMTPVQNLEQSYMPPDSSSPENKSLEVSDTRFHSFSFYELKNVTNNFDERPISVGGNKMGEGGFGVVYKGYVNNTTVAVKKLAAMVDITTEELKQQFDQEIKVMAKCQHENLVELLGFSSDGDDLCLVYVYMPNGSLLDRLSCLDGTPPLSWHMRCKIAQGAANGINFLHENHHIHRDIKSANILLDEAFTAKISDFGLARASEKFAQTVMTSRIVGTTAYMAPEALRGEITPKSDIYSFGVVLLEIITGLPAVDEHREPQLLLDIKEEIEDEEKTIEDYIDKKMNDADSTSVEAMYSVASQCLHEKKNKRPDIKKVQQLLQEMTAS
# [12] = molecular target: Proto-oncogene tyrosine-protein kinase Src (Homo sapiens) (UniProt P12931); assay: Inhibition of human full length SRC expressed in baculovirus assessed as substrate phosphorylation using fluorescence-labelled peptides as substrate at 95 uM after 90 mins by microfluidic peptide phosphorylation assay
# [13] = molecular target: Glycogen synthase kinase-3 beta (Homo sapiens) (UniProt P49841); assay: Inhibition of human full length GSK-3 beta expressed in baculovirus assessed as substrate phosphorylation using fluorescence-labelled peptides as substrate at 95 uM after 90 mins by microfluidic peptide phosphorylation assay
# [14] = molecular target: Calcium/calmodulin-dependent protein kinase type II subunit beta (Homo sapiens) (UniProt Q13554); assay: Inhibition of human CAMK2 beta catalytic domain expressed in baculovirus assessed as substrate phosphorylation using fluorescence-labelled peptides as substrate at 8 uM after 90 mins by microfluidic peptide phosphorylation assay
# [15] = molecular target: Platelet-derived growth factor receptor alpha (Homo sapiens) (UniProt P16234); assay: Inhibition of human PDGFR alpha catalytic domain expressed in baculovirus assessed as substrate phosphorylation using fluorescence-labelled peptides as substrate at 8 uM after 90 mins by microfluidic peptide phosphorylation assay
# [16] = molecular target: Casein kinase I isoform delta (Homo sapiens) (UniProt P48730); assay: Inhibition of human CK1D catalytic domain expressed in Escherichia coli cell assessed as substrate phosphorylation using fluorescence-labelled peptides as substrate at 8 uM after 90 mins by microfluidic peptide phosphorylation assay
# [17] = molecular target: Insulin receptor (Homo sapiens) (UniProt P06213); assay: Inhibition of human INSR catalytic domain expressed in baculovirus assessed as substrate phosphorylation using fluorescence-labelled peptides as substrate at 1000 uM after 90 mins by microfluidic peptide phosphorylation assay
# [18] = molecular target: Tyrosine-protein kinase HCK (Homo sapiens) (UniProt P08631); assay: Inhibition of human HCK catalytic domain expressed in baculovirus assessed as substrate phosphorylation using fluorescence-labelled peptides as substrate at 2 uM after 90 mins by microfluidic peptide phosphorylation assay
# [19] = molecular target: Protein kinase C theta type (Homo sapiens) (UniProt Q04759); assay: Inhibition of human truncated PKC theta expressed in baculovirus assessed as substrate phosphorylation using fluorescence-labelled peptides as substrate at 2 uM after 90 mins by microfluidic peptide phosphorylation assay
# Sequence of Calcium/calmodulin-dependent protein kinase type II subunit gamma (Homo sapiens) (Q13555 whole entry, the tested form may be a part): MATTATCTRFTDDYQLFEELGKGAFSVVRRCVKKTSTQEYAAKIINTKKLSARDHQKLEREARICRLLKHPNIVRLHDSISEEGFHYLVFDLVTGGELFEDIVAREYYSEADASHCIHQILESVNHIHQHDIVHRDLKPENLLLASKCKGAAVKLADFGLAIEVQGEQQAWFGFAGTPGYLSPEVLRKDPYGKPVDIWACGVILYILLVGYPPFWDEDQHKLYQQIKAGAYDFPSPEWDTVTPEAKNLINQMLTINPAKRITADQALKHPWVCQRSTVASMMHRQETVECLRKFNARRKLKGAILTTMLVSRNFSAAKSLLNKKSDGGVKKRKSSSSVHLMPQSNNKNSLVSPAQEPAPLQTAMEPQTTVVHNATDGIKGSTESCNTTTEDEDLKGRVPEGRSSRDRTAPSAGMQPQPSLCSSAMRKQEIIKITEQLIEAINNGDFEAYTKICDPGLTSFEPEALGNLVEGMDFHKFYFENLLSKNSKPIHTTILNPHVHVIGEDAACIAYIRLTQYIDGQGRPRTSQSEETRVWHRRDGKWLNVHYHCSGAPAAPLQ
# Sequence of Protein kinase C theta type (Homo sapiens) (Q04759 whole entry, looked up, the tested form may be a part): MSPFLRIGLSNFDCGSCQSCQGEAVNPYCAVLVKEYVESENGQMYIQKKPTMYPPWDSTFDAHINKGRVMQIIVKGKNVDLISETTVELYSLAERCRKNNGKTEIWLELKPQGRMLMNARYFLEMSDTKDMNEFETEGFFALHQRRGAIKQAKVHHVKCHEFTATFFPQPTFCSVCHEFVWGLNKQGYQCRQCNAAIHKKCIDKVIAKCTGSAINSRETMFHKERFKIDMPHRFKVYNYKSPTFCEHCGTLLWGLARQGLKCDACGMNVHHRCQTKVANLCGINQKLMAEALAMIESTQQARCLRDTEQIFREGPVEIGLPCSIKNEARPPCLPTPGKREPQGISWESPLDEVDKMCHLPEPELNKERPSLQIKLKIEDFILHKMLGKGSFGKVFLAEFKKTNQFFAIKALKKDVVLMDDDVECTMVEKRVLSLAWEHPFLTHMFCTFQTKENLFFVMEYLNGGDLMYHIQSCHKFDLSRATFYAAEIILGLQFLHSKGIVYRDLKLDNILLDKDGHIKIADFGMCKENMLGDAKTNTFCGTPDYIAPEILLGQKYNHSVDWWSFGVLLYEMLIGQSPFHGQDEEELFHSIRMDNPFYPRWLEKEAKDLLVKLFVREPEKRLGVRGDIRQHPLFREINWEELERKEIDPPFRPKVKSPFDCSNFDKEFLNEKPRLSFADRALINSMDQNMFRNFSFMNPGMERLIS
# Sequence of Platelet-derived growth factor receptor alpha (Homo sapiens) (P16234 whole entry, the tested form may be a part, canonical isoform): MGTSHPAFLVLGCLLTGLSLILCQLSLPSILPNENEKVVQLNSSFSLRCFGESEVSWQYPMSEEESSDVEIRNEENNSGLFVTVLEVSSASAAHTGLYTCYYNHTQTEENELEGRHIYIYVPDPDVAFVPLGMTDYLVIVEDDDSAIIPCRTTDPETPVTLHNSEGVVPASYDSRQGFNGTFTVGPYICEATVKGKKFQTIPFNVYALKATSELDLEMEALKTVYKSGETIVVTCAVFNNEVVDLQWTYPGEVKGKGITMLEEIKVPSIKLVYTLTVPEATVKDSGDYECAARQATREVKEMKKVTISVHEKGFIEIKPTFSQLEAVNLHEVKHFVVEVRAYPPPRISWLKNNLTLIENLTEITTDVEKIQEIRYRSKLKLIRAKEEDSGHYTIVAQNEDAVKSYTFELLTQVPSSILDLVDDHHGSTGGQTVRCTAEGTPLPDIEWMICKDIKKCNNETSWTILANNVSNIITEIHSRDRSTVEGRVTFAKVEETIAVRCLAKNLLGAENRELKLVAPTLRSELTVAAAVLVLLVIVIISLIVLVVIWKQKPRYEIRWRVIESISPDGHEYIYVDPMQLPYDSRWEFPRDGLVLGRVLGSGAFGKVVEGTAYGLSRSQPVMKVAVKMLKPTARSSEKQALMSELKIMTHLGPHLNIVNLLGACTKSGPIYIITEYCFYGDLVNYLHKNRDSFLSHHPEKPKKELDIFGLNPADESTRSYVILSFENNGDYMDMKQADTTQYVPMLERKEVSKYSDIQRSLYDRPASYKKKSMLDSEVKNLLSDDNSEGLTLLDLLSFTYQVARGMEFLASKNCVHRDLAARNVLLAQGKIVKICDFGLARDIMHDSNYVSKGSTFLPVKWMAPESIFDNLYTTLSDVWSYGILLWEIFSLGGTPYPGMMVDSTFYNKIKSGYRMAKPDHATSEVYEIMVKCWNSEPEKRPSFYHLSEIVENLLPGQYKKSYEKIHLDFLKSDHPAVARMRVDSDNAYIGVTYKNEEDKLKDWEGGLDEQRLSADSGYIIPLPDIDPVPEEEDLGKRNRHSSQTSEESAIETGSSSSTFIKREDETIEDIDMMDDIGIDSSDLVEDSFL
# Sequence of Ribosomal protein S6 kinase alpha-4 (Homo sapiens) (O75676 whole entry, looked up, the tested form may be a part): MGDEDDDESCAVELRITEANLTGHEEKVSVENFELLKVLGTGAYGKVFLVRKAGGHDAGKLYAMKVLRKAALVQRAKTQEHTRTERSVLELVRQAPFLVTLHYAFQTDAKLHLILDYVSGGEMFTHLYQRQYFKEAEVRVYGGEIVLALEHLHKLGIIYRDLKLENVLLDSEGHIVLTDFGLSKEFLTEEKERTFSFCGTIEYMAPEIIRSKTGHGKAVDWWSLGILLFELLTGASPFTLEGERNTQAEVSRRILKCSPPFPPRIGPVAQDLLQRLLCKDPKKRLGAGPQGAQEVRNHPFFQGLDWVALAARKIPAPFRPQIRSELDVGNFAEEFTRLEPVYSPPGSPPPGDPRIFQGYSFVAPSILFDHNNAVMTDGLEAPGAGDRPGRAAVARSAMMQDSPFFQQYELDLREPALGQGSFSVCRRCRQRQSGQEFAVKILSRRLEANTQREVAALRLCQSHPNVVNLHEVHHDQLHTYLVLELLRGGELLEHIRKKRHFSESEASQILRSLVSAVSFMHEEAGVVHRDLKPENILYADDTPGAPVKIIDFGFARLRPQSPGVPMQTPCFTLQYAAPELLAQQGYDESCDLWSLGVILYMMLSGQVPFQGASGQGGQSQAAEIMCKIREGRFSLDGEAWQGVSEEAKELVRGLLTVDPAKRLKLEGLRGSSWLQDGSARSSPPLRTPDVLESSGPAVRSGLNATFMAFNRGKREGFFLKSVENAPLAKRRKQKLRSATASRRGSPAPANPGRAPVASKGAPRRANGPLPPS
# Sequence of MAP kinase p38 (Homo sapiens) (O15264 whole entry, looked up, the tested form may be a part): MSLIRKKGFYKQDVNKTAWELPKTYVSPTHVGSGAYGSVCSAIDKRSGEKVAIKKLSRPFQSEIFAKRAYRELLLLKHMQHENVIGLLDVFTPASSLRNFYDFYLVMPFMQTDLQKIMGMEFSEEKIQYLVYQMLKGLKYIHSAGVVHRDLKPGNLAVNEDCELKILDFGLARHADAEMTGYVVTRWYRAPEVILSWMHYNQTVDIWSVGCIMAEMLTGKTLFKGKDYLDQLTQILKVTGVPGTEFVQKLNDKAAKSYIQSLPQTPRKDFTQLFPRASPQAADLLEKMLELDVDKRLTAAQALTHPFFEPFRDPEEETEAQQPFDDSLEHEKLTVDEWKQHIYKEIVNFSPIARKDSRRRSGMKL
# Sequence of MAP kinase p38 (Homo sapiens) (P53778 whole entry, looked up, the tested form may be a part): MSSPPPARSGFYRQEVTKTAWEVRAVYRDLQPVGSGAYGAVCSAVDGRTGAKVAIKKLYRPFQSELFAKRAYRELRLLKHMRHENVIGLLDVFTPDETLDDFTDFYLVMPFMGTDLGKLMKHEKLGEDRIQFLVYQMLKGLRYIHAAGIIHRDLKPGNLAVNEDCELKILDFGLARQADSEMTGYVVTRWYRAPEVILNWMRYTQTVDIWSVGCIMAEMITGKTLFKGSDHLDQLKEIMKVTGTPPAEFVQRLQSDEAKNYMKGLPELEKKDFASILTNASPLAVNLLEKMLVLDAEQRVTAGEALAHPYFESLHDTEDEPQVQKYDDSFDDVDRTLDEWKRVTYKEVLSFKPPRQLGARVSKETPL
# Sequence of MAP kinase p38 (Homo sapiens) (Q15759 whole entry, looked up, the tested form may be a part): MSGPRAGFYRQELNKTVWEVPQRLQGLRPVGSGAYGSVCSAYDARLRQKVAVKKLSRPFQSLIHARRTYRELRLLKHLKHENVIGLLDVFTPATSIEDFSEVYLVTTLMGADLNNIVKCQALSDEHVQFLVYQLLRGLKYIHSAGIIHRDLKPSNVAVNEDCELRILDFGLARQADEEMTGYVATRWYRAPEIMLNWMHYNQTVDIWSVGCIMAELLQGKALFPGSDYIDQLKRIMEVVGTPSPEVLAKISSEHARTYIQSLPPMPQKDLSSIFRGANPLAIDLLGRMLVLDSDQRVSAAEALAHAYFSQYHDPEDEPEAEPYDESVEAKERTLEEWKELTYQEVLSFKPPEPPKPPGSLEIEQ
# Sequence of MAP kinase p38 (Homo sapiens) (Q16539 whole entry, looked up, the tested form may be a part): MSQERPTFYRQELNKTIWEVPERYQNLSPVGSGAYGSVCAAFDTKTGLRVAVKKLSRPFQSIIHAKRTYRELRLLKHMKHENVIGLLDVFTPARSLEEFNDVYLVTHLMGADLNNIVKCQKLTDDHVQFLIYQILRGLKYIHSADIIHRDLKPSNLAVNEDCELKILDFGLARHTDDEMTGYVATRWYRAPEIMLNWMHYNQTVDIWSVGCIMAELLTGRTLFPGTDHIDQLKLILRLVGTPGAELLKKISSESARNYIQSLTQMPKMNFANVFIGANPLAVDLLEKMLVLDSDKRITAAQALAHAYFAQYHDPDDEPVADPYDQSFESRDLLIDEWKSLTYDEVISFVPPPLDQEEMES
# Sequence of Casein kinase I isoform delta (Homo sapiens) (P48730 whole entry, looked up, the tested form may be a part, canonical isoform): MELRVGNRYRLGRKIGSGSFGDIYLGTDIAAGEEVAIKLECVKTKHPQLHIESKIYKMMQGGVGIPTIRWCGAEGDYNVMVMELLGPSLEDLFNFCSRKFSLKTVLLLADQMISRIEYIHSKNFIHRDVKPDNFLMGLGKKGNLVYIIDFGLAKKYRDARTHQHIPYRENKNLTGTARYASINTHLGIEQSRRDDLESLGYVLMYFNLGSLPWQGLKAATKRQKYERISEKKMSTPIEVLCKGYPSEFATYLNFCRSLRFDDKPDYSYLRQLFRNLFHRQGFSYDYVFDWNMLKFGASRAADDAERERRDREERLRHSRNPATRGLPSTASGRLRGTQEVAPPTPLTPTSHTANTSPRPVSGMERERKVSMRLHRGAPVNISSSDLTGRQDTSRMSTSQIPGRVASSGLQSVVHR
smiles,measurement,setting,value
NC1(Cc2ccc(Cl)cc2)CCN(c2ncnc3[nH]ccc23)CC1,inhibition,[1],0%
same,inhibition,[2],9%
same,inhibition,[3],0%
same,inhibition,[4],5.5%
c1nc(N2CCOCC2)c2nc[nH]c2n1,inhibition,[5],73%
same,inhibition,[6],88.5%
same,inhibition,[7],76%
same,inhibition,[8],42%
Clc1ccc(C2(c3ccc(-c4ncnc5[nH]cnc45)cc3)CCNCC2)cc1,inhibition,[9],31.5%
C[C@H](CN(C)C)Oc1nc(Nc2cc3cccc(Cl)c3cn2)cnc1C#N,inhibition,[10],0%
NCCc1ccc(-c2ncnc3[nH]cnc23)cc1,inhibition,[11],34%
same,inhibition,[12],62%
same,inhibition,[13],55%
NCC1CCN(c2ncnc3[nH]ccc23)CC1,inhibition,[14],81%
same,inhibition,[15],0%
same,inhibition,[16],25.5%
c1cnc2[nH]ccc2c1,inhibition,[17],29%
NC1CCN(c2ncnc3[nH]ccc23)CC1,inhibition,[18],3%
same,inhibition,[19],13%
